Laboratory results published in US20140243302A1, “BRIDGED BICYCLIC COMPOUNDS FOR THE TREATMENT OF BACTERIAL INFECTIONS” (priority 2011, published 2014).
Counter-ions that a name gives are not always drawn.

Tested on: Staphylococcus aureus Smith
Experiment: MIC assay, modified agar dilution (CLSI), S. aureus Smith
Format: cell-based
Conditions: Staphylococcus aureus, agar dilution, 35° C., 16-20 hr; lowest concentration that completely inhibited growth; read-out: S_aureus_Smith_WT_MIC
Description: The potency of antibacterial agents was measured using the Minimal Inhibitory Concentration (MIC) assay. The assay measures the ability of test agents to inhibit the growth of bacteria on agar-containing medium.
The bacterial test strains used were exemplified by Staphylococcus aureus Smith, Enterococcus faecium A2373, Streptococcus pneumoniae IID554, and Escherichia coli ATCC 25922. All strains were maintained as frozen stocks held at −80° C. in skim milk. Other bacterial test strains are well known to those skilled in the art and can be used for testing.
Mueller Hinton Agar (MHA BBL; Becton Dickinson and Company, Sparks, Md.) was used as the medium. MHA was supplemented with 5% defibrinated horse blood (DHB; Nippon Biotest Laboratories inc.) to support the growth of S. pneumoniae and E. faecium.
MIC values were determined using a modified agar dilution procedure described by the Clinical and Laboratory Standards Institute (CLSI; Methods for Dilution Antimicrobial Susceptibility Tests for Bacteria That Grow Aerobically; Approved Standard—Eighth Edition. CLSI document M07-A8 [ISBN 1-56238-689-1]. Clinical and Laboratory Standards Institute, 940 West Valley Road, Suite 1400, Wayne, Pa. 19087-1898 USA, 2009).
Stock solutions (6.4 mgmL) of test compounds were prepared in 100% ultrapure dimethyl sulfoxide (DMSO; source) on the day of the assay. Subsequent serial dilutions were performed to generate solutions with concentrations ranging from 6.4 to 0.0002 mgmL in 100% DMSO.
Agar medium containing test compound was prepared by adding the dilutions of antimicrobial solution to molten MHA at a temperature of 45-50° C. The agar and antimicrobial solution were mixed thoroughly, poured into petri dishes, and allowed to solidify at room temperature. The final concentration of test compounds in the MHA medium ranged from 128 to 0.001 μg/mL with two-fold dilutions. MHA plates lacking antibacterial compound were used for growth controls.
Prior to susceptibility testing, the bacterial isolates were removed from frozen storage, thawed at room temperature, sub-cultured to MHA medium and incubated overnight at 35° C. S. pneumoniae and E. faecium were subcultured on MHA supplemented with 5% DHB at 35° C. with […]. Colonies from each plate were suspended in normal saline. This suspension was adjusted to the turbidity of a 0.5 McFarland standard, 1-2×10^8 colony forming units (CFU) per mL, and diluted 100-fold to 1-2×10^6 CFUmL.
Suspensions of bacterial cultures were applied to the surface of MHA plates containing test compound as well as to a growth control plate lacking test compound using an inoculum-replicating device with 4 mm pins. The replicating device applied 5 uL of the bacterial suspension such that each spot contained approx. 1×10^4 CFU. Plates were dried for about 40 min and incubated at 35° C. for 16-20 hr prior to scoring.

Question: With `COc1ccc2ncc(Cl)c(CC(O)C34CCC(NCc5ccc6c(n5)NC(=O)CO6)(CC3)CC4)c2n1.Cl` (single isomer, unassigned) [Example 14a, 6-((4-(2-(3-Chloro-6-methoxy-1,5-naphthyridin-4-yl)-1-hydroxyethyl)bicyclo[2.2.2]octan-1-ylamino)methyl)-2H-pyrido[3,2-b][1,4]oxazin-3(4H)-one Hydrochloride] as the molecule, how does the MIC read?
Answer: The MIC was 0.031 µg/mL.

Question: For `COc1ccc2ncc(F)c(CC(N)C34CCC(NCc5ccc6c(n5)NC(=O)CO6)(CC3)CO4)c2n1` (single isomer, unassigned) [Example 21a, 6-((1-(1-Amino-2-(3-fluoro-6-methoxy-1,5-naphthyridin-4-yl)ethyl)-2-oxabicyclo[2.2.2]octan-4-ylamino)methyl)-2H-pyrido[3,2-b][1,4]oxazin-3(4H)-one Dihydrochloride], which MIC is on record?
Answer: Its MIC is 0.25 µg/mL.

Same assay, conditions: agar dilution, 35° C., 16-20 hr; lowest concentration that completely inhibited growth

Question: With `COc1ccc2ncc(Cl)c(C(O)CC34CCC(NCc5ccc6c(n5)NC(=O)CO6)(CC3)CC4)c2n1` (single isomer, unassigned) [Example 13a, 6-((4-(2-(3-Chloro-6-methoxy-1,5-naphthyridin-4-yl)-2-hydroxyethyl)bicyclo[2.2.2]octan-1-ylamino)methyl)-2H-pyrido[3,2-b][1,4]oxazin-3(4H)-one] as the molecule, how does the S_aureus_Smith_WT_MIC read?
Answer: Its S_aureus_Smith_WT_MIC is 0.0310 µg/mL.

Question: With `COc1ccc2ncc(Cl)c(C(O)CC34CCC(NCc5ccc6c(n5)NC(=O)CO6)(CC3)CC4)c2n1` (single isomer, unassigned) [Example 13b, 6-((4-(2-(3-Chloro-6-methoxy-1,5-naphthyridin-4-yl)-2-hydroxyethyl)bicyclo[2.2.2]octan-1-ylamino)methyl)-2H-pyrido[3,2-b][1,4]oxazin-3(4H)-one] as the molecule, how does the S_aureus_Smith_WT_MIC read?
Answer: Its S_aureus_Smith_WT_MIC is 0.0630 µg/mL.

Question: With `COc1ccc2ncc(Cl)c(CC(O)C34CCC(NCc5ccc6c(n5)NC(=O)CO6)(CC3)CC4)c2n1.Cl` (single isomer, unassigned) [Example 14b, 6-((4-(2-(3-Chloro-6-methoxy-1,5-naphthyridin-4-yl)-1-hydroxyethyl)bicyclo[2.2.2]octan-1-ylamino)methyl)-2H-pyrido[3,2-b][1,4]oxazin-3(4H)-one Hydrochloride] as the molecule, how does the S_aureus_Smith_WT_MIC read?
Answer: Its S_aureus_Smith_WT_MIC is 0.0310 µg/mL.

Question: For `COc1ccc2ncc(F)c(CC(O)C34CCC(NCc5ccc6c(n5)NC(=O)CO6)(CC3)CO4)c2n1.Cl` (single isomer, unassigned) [Example 20b, 6-((1-(2-(3-Fluoro-6-methoxy-1,5-naphthyridin-4-yl)-1-hydroxyethyl)-2-oxabicyclo[2.2.2]octan-4-ylamino)methyl)-2H-pyrido[3,2-b][1,4]oxazin-3(4H)-one Hydrochloride], which S_aureus_Smith_WT_MIC is on record?
Answer: The S_aureus_Smith_WT_MIC was 0.0630 µg/mL.

Question: `COc1ccc2ccc(=O)n(CC(O)C34CCC(NCc5ccc6c(n5)NC(=O)CO6)(CC3)CO4)c2n1` (single isomer, unassigned) [Example 52a, 6-(((1-(1-Hydroxy-2-(7-methoxy-2-oxo-1,8-naphthyridin-1(2H)-yl)ethyl)-2-oxabicyclo[2.2.2]octan-4-yl)amino)methyl)-2H-pyrido[3,2-b][1,4]oxazin-3(4H)-one] was tested. Which S_aureus_Smith_WT_MIC did it give?
Answer: Its S_aureus_Smith_WT_MIC is 0.0310 µg/mL.

Question: Which S_aureus_Smith_WT_MIC does the source give for `COc1ccc2ccc(=O)n(CC(O)C34CCC(NCc5ccc6c(n5)NC(=O)CO6)(CC3)CO4)c2n1` (single isomer, unassigned) [Example 52b, 6-(((1-(1-Hydroxy-2-(7-methoxy-2-oxo-1,8-naphthyridin-1(2H)-yl)ethyl)-2-oxabicyclo[2.2.2]octan-4-yl)amino)methyl)-2H-pyrido[3,2-b][1,4]oxazin-3(4H)-one] here?
Answer: Its S_aureus_Smith_WT_MIC is 0.0630 µg/mL.

Question: How did the S_aureus_Smith_WT_MIC turn out when `COc1cnc2ccc(=O)n(CC(O)C34CCC(NCc5ccc6c(n5)NC(=O)CO6)(CC3)CO4)c2c1` (single isomer, unassigned) [Example 54a, 6-(((1-(1-Hydroxy-2-(7-methoxy-2-oxo-1,5-naphthyridin-1(2H)-yl)ethyl)-2-oxabicyclo[2.2.2]octan-4-yl)amino)methyl)-2H-pyrido[3,2-b][1,4]oxazin-3(4H)-one] was run?
Answer: Its S_aureus_Smith_WT_MIC is 0.250 µg/mL.

Question: For `COc1cnc2ccc(=O)n(CC(O)C34CCC(NCc5ccc6c(n5)NC(=O)CO6)(CC3)CO4)c2c1` (single isomer, unassigned) [Example 54b, 6-(((1-(1-hydroxy-2-(7-methoxy-2-oxo-1,5-naphthyridin-1(2H)-yl)ethyl)-2-oxabicyclo[2.2.2]octan-4-yl)amino)methyl)-2H-pyrido[3,2-b][1,4]oxazin-3(4H)-one], which S_aureus_Smith_WT_MIC is on record?
Answer: The S_aureus_Smith_WT_MIC was 0.0160 µg/mL.

Question: `O=C1COc2ccc(CNC34CCC(C(O)Cn5c(=O)ccc6ncc(F)cc65)(CC3)OC4)nc2N1` (single isomer, unassigned) [Example 55a, 6-((1-(2-(7-Fluoro-2-oxo-1,5-naphthyridin-1(2H)-yl)-1-hydroxyethyl)-2-oxabicyclo[2.2.2]octan-4-ylamino)methyl)-2H-pyrido[3,2-b][1,4]oxazin-3(4H)-one] was tested. Which S_aureus_Smith_WT_MIC did it give?
Answer: Its S_aureus_Smith_WT_MIC is 1.00 µg/mL.

Same assay, conditions: agar dilution, 35° C., 16-20 hr; lowest concentration that completely inhibited growth; Dihydrochloride

Question: `COc1ccc2ncc(F)c(CC(N)C34CCC(NCc5ccc6c(n5)NC(=O)CO6)(CC3)CO4)c2n1` (single isomer, unassigned) [Example 21b, 6-((1-(1-Amino-2-(3-fluoro-6-methoxy-1,5-naphthyridin-4-yl)ethyl)-2-oxabicyclo[2.2.2]octan-4-ylamino)methyl)-2H-pyrido[3,2-b][1,4]oxazin-3(4H)-one Dihydrochloride] was tested. Which S_aureus_Smith_WT_MIC did it give?
Answer: Its S_aureus_Smith_WT_MIC is 0.125 µg/mL.

Same assay, conditions: agar dilution, 35° C., 16-20 hr; lowest concentration that completely inhibited growth; Hydrochloride

Question: For `COc1ccc2ncc(F)c(C(O)C(O)C34CCC(NCc5ccc6c(n5)NC(=O)CO6)(CC3)CO4)c2n1.Cl` (single isomer, unassigned) [Example 26a, 6-((1-(2-(3-Fluoro-6-methoxy-1,5-naphthyridin-4-yl)-1,2-dihydroxyethyl)-2-oxabicyclo[2.2.2]octan-4-ylamino)methyl)-2H-pyrido[3,2-b][1,4]oxazin-3(4H)-one Hydrochloride], which S_aureus_Smith_WT_MIC is on record?
Answer: Its S_aureus_Smith_WT_MIC is 0.250 µg/mL.

Question: How did the S_aureus_Smith_WT_MIC turn out when `COc1ccc2ncc(F)c(C(O)C(O)C34CCC(NCc5ccc6c(n5)NC(=O)CO6)(CC3)CO4)c2n1.Cl` (single isomer, unassigned) [Example 26b, 6-((1-(2-(3-Fluoro-6-methoxy-1,5-naphthyridin-4-yl)-1,2-dihydroxyethyl)-2-oxabicyclo[2.2.2]octan-4-ylamino)methyl)-2H-pyrido[3,2-b][1,4]oxazin-3(4H)-one Hydrochloride] was run?
Answer: Its S_aureus_Smith_WT_MIC is 1.00 µg/mL.

Question: `COc1ccc2ncc(F)c(C3OC(=O)OC3C34CCC(NCc5ccc6c(n5)NC(=O)CO6)(CC3)CO4)c2n1.Cl` (single isomer, unassigned) [Example 27a, 6-((1-(5-(3-Fluoro-6-methoxy-1,5-naphthyridin-4-yl)-2-oxo-1,3-dioxolan-4-yl)-2-oxabicyclo[2.2.2]octan-4-ylamino)methyl)-2H-pyrido[3,2-b][1,4]oxazin-3(4H)-one Hydrochloride] was tested. Which S_aureus_Smith_WT_MIC did it give?
Answer: The S_aureus_Smith_WT_MIC was 0.250 µg/mL.

Question: With `COc1ccc2ncc(F)c(C3OC(=O)OC3C34CCC(NCc5ccc6c(n5)NC(=O)CO6)(CC3)CO4)c2n1.Cl` (single isomer, unassigned) [Example 27b, 6-((1-(5-(3-fluoro-6-methoxy-1,5-naphthyridin-4-yl)-2-oxo-1,3-dioxolan-4-yl)-2-oxabicyclo[2.2.2]octan-4-ylamino)methyl)-2H-pyrido[3,2-b][1,4]oxazin-3(4H)-one hydrochloride] as the molecule, how does the S_aureus_Smith_WT_MIC read?
Answer: The S_aureus_Smith_WT_MIC was 2.00 µg/mL.

Question: How did the S_aureus_Smith_WT_MIC turn out when `COc1ccc2ncc(=O)n(CC(O)C34CCC(NCc5ccc6c(n5)NC(=O)CO6)(CC3)CO4)c2n1.Cl` (single isomer, unassigned) [Example 51a, 6-(((1-(1-Hydroxy-2-(6-methoxy-3-oxopyrido[2,3-b]pyrazin-4(3H)-yl)ethyl)-2-oxabicyclo[2.2.2]octan-4-yl)amino)methyl)-2H-pyrido[3,2-b][1,4]oxazin-3(4H)-one Hydrochloride] was run?
Answer: Its S_aureus_Smith_WT_MIC is 0.0310 µg/mL.

Question: With `COc1ccc2ncc(=O)n(CC(O)C34CCC(NCc5ccc6c(n5)NC(=O)CO6)(CC3)CO4)c2n1.Cl` (single isomer, unassigned) [Example 51b, 6-(((1-(1-hydroxy-2-(6-methoxy-3-oxopyrido[2,3-b]pyrazin-4(3H)-yl)ethyl)-2-oxabicyclo[2.2.2]octan-4-yl)amino)methyl)-2H-pyrido[3,2-b][1,4]oxazin-3(4H)-one hydrochloride] as the molecule, how does the S_aureus_Smith_WT_MIC read?
Answer: Its S_aureus_Smith_WT_MIC is 0.0630 µg/mL.
